Source: patent US7091238B1, “Thienylhydrazon with digitalis-like properties (positive inotropic effects)” (University of Maryland, priority 1999, dated 2006)

Assays:
[1] = system: rat thoracic aorta; settings: reported by Delpy and Gouville (1996); cited from earlier work
[2] = system: neuromuscular transmission; experiment: Contractions of gastrocnemius muscle induced by stimulation of the sciatic nerve; format: in vivo; settings: rat gastrocnemius
Protocol: FIG. 30. Records of contractions induced by stimulation of the sciatic nerve of equilibrated rat gastrocnemius muscles and of arterial pressure. In control, contractions were induced by intravenous injection of DMSO ([…]). LASSBio-294 was administered in DMSO. Calibration: Horizontal, 1 cm=24 s; Vertical 2 g=100 mm Hg.
FIG. 31. Records of contractions of rat gastrocnemius muscles induced by stimulation of the sciatic nerve and of arterial pressure. For control, contraction was induced by intravenous injection of […] (0.04 ml). LASSBio-294 was administered in DMSO.

CCCOc1ccc(NS(C)(=O)=O)cc1-c1nc2c(c(C)nn2C)c(=O)[nH]1 [DMPPO]
relaxant effect after removal of endothelium [1]: lost its effect

C=CC[N@@+]12CC[C@@]34c5ccccc5N5/C=C6/[C@H]7C[C@H]8[C@@]9(CC[N@@+]8(CC=C)C/C7=C/CO)c7ccccc7N(/C=C(/[C@@H](C[C@@H]31)/C(=C\CO)C2)[C@H]54)[C@@H]69.[Cl-].[Cl-] [alloferine, reference compound]
depression of muscle contraction (test of functionality of the model) [2]: depression of muscle contraction
